Laboratory results from patent US4107424A, “1-N-[(S)-α-hydroxy-ω-aminoacyl] derivatives of 3',4'-dideoxykanamycin B and 3'-deoxykanamycin B antibiotics” (Zaidan Hojin Biseibutsu Kagaku Kenkyu Kai, priority 1972, dated 1978).
Converted amounts (≈) assume the structure as drawn. Like-named read-outs stand apart in the source and are kept apart here.

What was measured:
[1] = test system: Mycobacterium smegmatis ATCC 607; assay: Minimal inhibitory concentration, agar dilution streak method; format: cell-based; details: Mycolicibacterium smegmatis, ATCC607, nutrient agar, 37° C
[2] = test system: Pseudomonas aeruginosa 99; assay: as above; format: cell-based; details: nutrient agar, 37° C, 18 hours, read-out: Minimal inhibitory concentration
Description: (§1) [α]D^22 + 38°, (c 0.85, water).
(§2) *Agar Agar dilution streak method (nutrient agar, 37° C, 18 hours)
(§3) *Agar dilution streak method (nutrient agar, 37° C, 18 hours).

[3] = test system: Salmonella typhosa T-63; assay: as above; format: cell-based; details: Salmonella enterica, nutrient agar, 37° C, 18 hours
Description: as §1, §2, §3

[4] = test system: Bacillus subtilis NRRL B-558; assay: as above; format: cell-based; details: NRRLB558, nutrient agar, 37° C, 18 hours
Description: as §1, §2, §3

[5] = test system: Klebsiella pneumoniae PCI 602; assay: as above; format: cell-based; details: PCI602, nutrient agar, 37° C, 18 hours
Description: as §1, §2, §3

[6] = test system: Proteus rettgeri GN 311; assay: as above; format: cell-based; details: Providencia rettgeri, GN311; nutrient agar, 37° C, 18 hours
Description: as §1, §2, §3

[7] = test system: Sarcina lutea PCI 1001; assay: as above; format: cell-based; details: Micrococcus luteus, read-out: Minimal inhibitory concentration
Description: as §1, §2, §3

[8] = test system: Escherichia coli K-12 R-5; assay: as above; format: cell-based; details: K12R5, nutrient agar, 37° C, 18 hours
Description: as §1, §2, §3

[9] = test system: Escherichia coli J 5 R 11-2; assay: as above; format: cell-based; details: J5R112, 18 h, read-out: Minimal inhibitory concentration
Description: as §1, §2, §3

[10] = test system: Escherichia coli K-12 C 600 R 135; assay: as above; format: cell-based; details: 18 h, read-out: Minimal inhibitory concentration
Description: as §1, §2, §3

[11] = test system: Proteus rettgeri GN 466; assay: as above; format: cell-based; details: Providencia rettgeri, GN466; nutrient agar, 37° C, 18 hours
Description: as §1, §2, §3

[12] = test system: Escherichia coli NIHJ; assay: as above; format: cell-based; details: nutrient agar, 37° C, 18 hours
Description: as §1, §2, §3

[13] = test system: Escherichia coli K-12 JR 66/W 677; assay: as above; format: cell-based; details: for MIC: Escherichia coli, 18 h, read-out: Minimal inhibitory concentration
Description: as §2, §3

[14] = test system: Pseudomonas aeruginosa No.12; assay: as above; format: cell-based; details: nutrient agar, 37° C, 18 hours, read-out: Minimal inhibitory concentration
Description: as §2, §3

[15] = test system: Escherichia coli K-12 LA 290 R 56; assay: as above; format: cell-based; details: 18 h, read-out: Minimal inhibitory concentration
Description: as §2, §3

[16] = test system: Staphylococcus aureus FDA 209P; assay: as above; format: cell-based; details: FDA209P, nutrient agar, 37° C, 18 hours, read-out: Minimal inhibitory concentration
Description: as §2, §3

[17] = test system: Escherichia coli K-12; assay: as above; format: cell-based; details: K12, nutrient agar, 37° C, 18 hours, read-out: Minimal inhibitory concentration
Description: as §2, §3

[18] = test system: Escherichia coli K-12 ML 1410 R 81; assay: as above; format: cell-based; details: 18 h, read-out: Minimal inhibitory concentration
Description: as §2, §3

[19] = test system: Escherichia coli K-12 ML 1630; assay: as above; format: cell-based; details: K12ML1630, nutrient agar, 37° C, 18 hours, read-out: Minimal inhibitory concentration
Description: as §2, §3

[20] = test system: Pseudomonas aeruginosa GN 315; assay: as above; format: cell-based; details: GN315, nutrient agar, 37° C, 18 hours, read-out: Minimal inhibitory concentration
Description: as §2, §3

[21] = test system: Escherichia coli K-12 W 677; assay: as above; format: cell-based; details: K12W677, nutrient agar, 37° C, 18 hours, read-out: Minimal inhibitory concentration
Description: as §2, §3

[22] = test system: Escherichia coli K-12 LA 290 R 55; assay: as above; format: cell-based; details: 18 h, read-out: Minimal inhibitory concentration
Description: as §2, §3

[23] = test system: Pseudomonas aeruginosa TI-13; assay: as above; format: cell-based; details: TI13, nutrient agar, 37° C, 18 hours, read-out: Minimal inhibitory concentration
Description: as §2, §3

[24] = test system: Escherichia coli K-12 ML 1410; assay: as above; format: cell-based; details: K12ML1410, nutrient agar, 37° C, 18 hours, read-out: Minimal inhibitory concentration
Description: as §2, §3

[25] = test system: Pseudomonas aeruginosa A 3; assay: as above; format: cell-based; details: A3, nutrient agar, 37° C, 18 hours, read-out: Minimal inhibitory concentration
Description: as §2, §3

[26] = test system: Escherichia coli K-12 ML 1629; assay: as above; format: cell-based; details: K12ML1629, nutrient agar, 37° C, 18 hours, read-out: Minimal inhibitory concentration
Description: as §2, §3

[27] = test system: Klebsiella pneumoniae type 22 #3038; assay: as above; format: cell-based; details: for MIC: Klebsiella pneumoniae, nutrient agar, 37° C, 18 hours
Description: as §2, §3

[28] = test system: Escherichia coli K-12 LA 290 R 64; assay: as above; format: cell-based; details: nutrient agar, 37° C, 18 hours, read-out: Minimal inhibitory concentration
Description: as §2, §3

[29] = test system: kanamycin-resistant strains; details: cited from earlier work
[30] = test system: Staphylococcus aureus Terajima; assay: Minimum inhibitory concentration, serial dilution method; format: cell-based; details: 18 h, read-out: Minimum inhibitory concentrations
[31] = test system: Bacillus anthracis; assay: microbe, parasite or virus in culture; format: cell-based; details: 18 h, read-out: Minimum inhibitory concentrations
[32] = test system: Klebsiella pneumoniae PCI 1602; assay: Minimum inhibitory concentration, serial dilution method; format: cell-based; details: PCI1602, 18 h, read-out: Minimum inhibitory concentrations
[33] = test system: Bacillus subtilis PCI 219; assay: as above; format: cell-based; details: PCI219, 18 h, read-out: Minimum inhibitory concentrations
[34] = test system: Staphylococcus aureus Smith; assay: as above; format: cell-based; details: 18 h, read-out: Minimum inhibitory concentrations
[35] = test system: Shigella flexneri 4b JS 11811; assay: as above; format: cell-based; details: 4BJS11811, nutrient agar, 37° C, 18 hours, read-out: Minimum inhibitory concentrations
[36] = test system: Shigella sonnei JS 11746; assay: as above; format: cell-based; details: JS11746, nutrient agar, 37° C, 18 hours, read-out: Minimum inhibitory concentrations
[37] = test system: Proetus vulgaris OX 19; assay: as above; format: cell-based; details: nutrient agar, 37° C, 18 hours; read-out: Minimum inhibitory concentrations
[38] = test system: Shigella dysenteriae JS 11910; assay: as above; format: cell-based; details: JS11910, 18 h, read-out: Minimum inhibitory concentrations
[39] = test system: Corynebacterium bovis 1810; assay: as above; format: cell-based; details: Corynebacterium bovis, 1810, 18 h, read-out: Minimum inhibitory concentrations
[40] = test system: Salmonella enteritidis 1891; assay: as above; format: cell-based; details: Salmonella enterica, nutrient agar, 37° C, 18 hours, read-out: Minimum inhibitory concentrations
[41] = test system: Bacillus cereus ATCC 10702; assay: as above; format: cell-based; details: ATCC10702, nutrient agar, 37° C, 18 hours, read-out: Minimum inhibitory concentrations
[42] = 48 hours, read-out: Minimal inhibitory concentration
[43] = PCI1001, nutrient agar, 37° C, 18 hours
[44] = strain resistant to butirosin B

| Compound | MIC [2] [µg/mL] | MIC [3] [µg/mL] | MIC [8] [µg/mL] | MIC [12] [µg/mL] | MIC [13] [µg/mL] | MIC [14] [µg/mL] | MIC [15] [µg/mL] | MIC [16] [µg/mL] | MIC [17] [µg/mL] | MIC [18] [µg/mL] | MIC [19] [µg/mL] | MIC [20] [µg/mL] | MIC [21] [µg/mL] | MIC [22] [µg/mL] | MIC [23] [µg/mL] | MIC [24] [µg/mL] | MIC [25] [µg/mL] | MIC [26] [µg/mL] | MIC [27] [µg/mL] | MIC [28] [µg/mL] | further results |
| --- | --- | --- | --- | --- | --- | --- | --- | --- | --- | --- | --- | --- | --- | --- | --- | --- | --- | --- | --- | --- | --- |
| NC[C@@H]1CC[C@@H](N)[C@@H](O[C@H]2[C@H](O)[C@@H](O)[C@H](N)C[C@@H]2N)O1 [3',4'-dideoxyneamine] | 50 (≈ 172 µM) | 3.12 (≈ 10.7 µM) | 50 (≈ 172 µM) | 12.5 (≈ 43 µM) | 25 (≈ 86.1 µM) | 25 (≈ 86.1 µM) | 6.25 (≈ 21.5 µM) | 6.25 (≈ 21.5 µM) | 6.25 (≈ 21.5 µM) | 25 (≈ 86.1 µM) | 12.5 (≈ 43 µM) | > 100 | 6.25 (≈ 21.5 µM) | 6.25 (≈ 21.5 µM) | 25 (≈ 86.1 µM) | 6.25 (≈ 21.5 µM) | 25 (≈ 86.1 µM) | 12.5 (≈ 43 µM) | 25 (≈ 86.1 µM) | 12.5 (≈ 43 µM) | MIC [1, 42]: 25 µg/mL (≈ 86.1 µM); MIC [4]: 0.39 µg/mL (≈ 1.34 µM); MIC [5]: 25 µg/mL (≈ 86.1 µM); MIC [6]: 50 µg/mL (≈ 172 µM); MIC [7, 43]: 50 µg/mL (≈ 172 µM); MIC [9]: 6.25 µg/mL (≈ 21.5 µM); MIC [10]: 12.5 µg/mL (≈ 43 µM); MIC [11]: 25 µg/mL (≈ 86.1 µM); activity against kanamycin-resistant strains ([29]; strains producing 3'-hydroxyl phosphorylating enzyme): actually effective |
| NCC[C@H](O)C(=O)N[C@@H]1C[C@H](N)[C@@H](O[C@H]2O[C@H](CN)[C@@H](O)[C@H](O)[C@H]2N)[C@H](O[C@@H]2O[C@H](CO)[C@@H](O)[C@H]2O)[C@H]1O [Butirosin B, 1-N-[(S)-α-hydroxy-γ-amino-n-butyryl]-ribostamycin] | 50 (≈ 90 µM) | 0.39 (≈ 0.702 µM) | 6.25 (≈ 11.2 µM) | 3.12 (≈ 5.62 µM) | > 100 | 6.25 (≈ 11.2 µM) | 0.78 (≈ 1.4 µM) | 1.56 (≈ 2.81 µM) | 0.78 (≈ 1.4 µM) | 3.12 (≈ 5.62 µM) | 1.56 (≈ 2.81 µM) | > 100 | 0.39 (≈ 0.702 µM) | 0.78 (≈ 1.4 µM) | 25 (≈ 45 µM) | 0.78 (≈ 1.4 µM) | 3.12 (≈ 5.62 µM) | 1.56 (≈ 2.81 µM) | > 100 | 0.78 (≈ 1.4 µM) | MIC [1, 42]: 0.78 µg/mL (≈ 1.4 µM); MIC [4]: 0.39 µg/mL (≈ 0.702 µM); MIC [5]: 0.78 µg/mL (≈ 1.4 µM); MIC [6]: 6.25 µg/mL (≈ 11.2 µM); MIC [7, 43]: 50 µg/mL (≈ 90 µM); MIC [9]: 1.56 µg/mL (≈ 2.81 µM); MIC [10]: 0.78 µg/mL (≈ 1.4 µM); MIC [11]: 3.12 µg/mL (≈ 5.62 µM); effectiveness against Escherichia coli K-12 JR 66/W 677 [13, 44]: resistant to butirosin B; effectiveness against Klebsiella pneumoniae type 22 #3038 [27, 44]: resistant to butirosin B; activity against kanamycin- and ribostamycin-resistant bacteria [29]: active against some kanamycin- and ribostamycin-resistant bacteria |
| NC[C@H]1O[C@H](O[C@H]2[C@H](O)[C@@H](O[C@H]3O[C@H](CO)[C@@H](O)[C@H](N)[C@H]3O)[C@H](N)C[C@@H]2N)[C@H](N)[C@@H](O)[C@@H]1O [Kanamycin B, kanamycin B] | > 100 | 0.2 (≈ 0.414 µM) | 1.56 (≈ 3.23 µM) | 0.78 (≈ 1.61 µM) | > 100 | 12.5 (≈ 25.9 µM) | 3.13 (≈ 6.47 µM) | 0.39 (≈ 0.807 µM) | 0.78 (≈ 1.61 µM) | > 100 | > 100 | > 100 | 0.39 (≈ 0.807 µM) | 12.5 (≈ 25.9 µM) | 100 (≈ 207 µM) | 0.78 (≈ 1.61 µM) | 50 (≈ 103 µM) | > 100 | > 100 | 3.13 (≈ 6.47 µM) | MIC [30]: < 0.2 µg/mL; MIC [31]: < 0.2 µg/mL; MIC [32]: 0.78 µg/mL (≈ 1.61 µM); MIC [33]: < 0.2 µg/mL; MIC [34]: < 0.2 µg/mL; MIC [35]: 3.13 µg/mL (≈ 6.47 µM); MIC [36]: 1.56 µg/mL (≈ 3.23 µM); MIC [37]: 0.78 µg/mL (≈ 1.61 µM); MIC [38]: 3.13 µg/mL (≈ 6.47 µM); MIC ([1]; 18 hours, read-out: Minimum inhibitory concentrations): 0.78 µg/mL (≈ 1.61 µM); MIC ([7]; PCI1001, 18 h): 1.56 µg/mL (≈ 3.23 µM); MIC [39]: 1.56 µg/mL (≈ 3.23 µM); MIC [40]: 1.56 µg/mL (≈ 3.23 µM); MIC [41]: 0.78 µg/mL (≈ 1.61 µM) |
